Assay results published in patent US20250123282A1, “METHODS FOR EVALUATION AND TREATMENT OF TYROSINE KINASE INHIBITOR (TKI)-RESISTANT ACUTE MYELOID LEUKEMIA” (LOMA LINDA UNIVERSITY, priority 2021, published 2025).

Experiments:
primary AML BMMNC = experiment: Human cytokine proteome profile array of cell-free supernatants from treated primary AML BMMNC; assay type: cell-based; conditions: 80 nM GILT, 3 days ex vivo, Patient #1 and #2, vs non-treated control
Procedure: To identify the protein(s) responsible for initiation of the survival mechanism and subsequent proliferation of AML blasts, human cytokine proteome profile arrays of cell-free supernatants from GILT-treated MV4-11's cultures were performed. […] Under the no treatment (No Tx) condition, MV4-11 releases numerous cytokines such as MIF in their supernatant; however, one dose of GILT-treatment eliminated release of a variety of cytokines such as osteopontin (arrows, FIG. 7A), a protein closely associated with adverse prognosis in AML patients. Next, bone marrow mononuclear cells (BMMNC) from AML patients were treated for 3 days ex vivo.
Human Samples. AML bone marrow (BM) mononuclear cells (BMMNC) (Patients #1-7, Table 4) were obtained from the City of Hope National Medical Center (COHNMC). All donor patients signed an informed consent form. Sample acquisition was approved by the Institutional Review Boards at the LLUMC and the COHNMC in accordance with an assurance filed with and approved by the Department of Health and Human Services, and it met all requirements of the Declaration of Helsinki.
For MIF in vitro experiments, different doses of MIF were added to 1 ml of 1×10^6 MV4-11 cells or RAW264.7 cells for each experimental group in 24-well plates. Two days after the one dose treatment, cells were then collected for either analyses by FACS and qPCR. […]

MV4-11 cells = experiment: Coculture of GILT and exogenous MIF on MV4-11 (sequential or simultaneous); assay type: cell-based, human; conditions: MV4-11, sequential coculture 5 days, 80 nM GILT only
Procedure: To investigate whether MIF/CXCLs-CXCR2 pathways could be activated by TKI-treatment in viable blasts to support their survival and continuous proliferation, a serial coculture was conducted to examine whether the supplementation of exogenous MIF at early (simultaneous) or late stage (sequential) of TKI treatment could rescue the GIL-treated MV4-11 in vitro. CD44, a multifunctional cell surface adhesion receptor, was identified as a key regulator of quiescent AML leukemic stem cells (LSCs) which are highly microenvironment dependent. […] In the simultaneous coculture, another group of CD44High^+ cells was also found which included both Ki67^+ and Ki67^− subsets (FIG. 8F). This group of CD44High^+ cells could be visualized in the flow cytometry histogram (FIG. 8G). […] CD44high^+ stem-like cells have been previously found to be highly tumorigenic, treatment-resistant and responsible for metastatic progression in breast cancer.

MV4-11 = conditions: cited from earlier work

| SMILES | MIF release increase in the supernatant (primary AML BMMNC) | percentage of viable quiescent CD44+ cell population (MV4-11 cells) | dose at which suppression of tumorigenic clustering and c-Kit starts (MV4-11) |
| --- | --- | --- | --- |
| CCc1nc(C(N)=O)c(Nc2ccc(N3CCC(N4CCN(C)CC4)CC3)c(OC)c2)nc1NC1CCOCC1 [GILT, Gilteritinib] | 2.1 fold | 17.7% | – |
| CC(C)(C)c1cc(NC(=O)Nc2ccc(-c3cn4c(n3)sc3cc(OCCN5CCOCC5)ccc34)cc2)no1 [QUIZ, Quizartinib] | – | – | 80 nM |
